The source of these data is patent US11945862B2, “Compositions and methods for antibody production” (ImmunoGen, Inc., priority 2017, dated 2024).

Where a name gives a salt, the structure may show the parent alone. Read-outs that look alike come from different tables or passages of the source.

Series [1] can be described thus: Redox potential of antibody solution with media additive over a range of DTT concentrations. It is filed as physicochemical. The conditions noted are these: 1 mM additive, DTT 0.34 μM to 170 μM, 37° C., 1 h.
Series [2] deals with M9346A antibody. It is filed as biochemical. The settings on record: 1 mM additive. Here is the method: Antibody reduction was induced in a biological assay by adding cell lysate to purified monoclonal antibody. […]. Increasing amounts of CHO cell lysate were added to mimic different percentages of cell lysis, ranging from […]. Fresh NADPH was added to a concentration of 400 μM. The mixtures were incubated in a water bath at 37° C. for 1 h. Free thiols were alkylated by addition of 10% (v/v) of 50 mM N-ethyl-maleimide (NEM) solution. Samples were analyzed by non-reduced sodium dodecyl sulfate denaturing capillary electrophoresis (NR-CE-SDS).
To test the capacity for protection further, the stringency of the assay was increased. […].

The nature of a further series: physchem. The conditions noted are these: thermodynamic from solid.
Series [3] deals with M9346A antibody. It counts as biochemical.
For series [4], the system named is Humanized FOLR1 IgG1 antibody. Kind of series: Antibody disulfide reduction by CHO cell lysate (RIPA buffer), thiol per antibody by Ellman's assay. The conditions noted are these: L-cystine derived from saturated L-cystine solution, 3 hours, pH 7; control 1.96. It is filed as biochemical. On the technique in general: DTNB colorimetry detects thiols as they appear.
Description: Lysates of CHO cells (˜60 million cells lysed in 0.6 ml RIPA buffer and clarified by centrifugation) were added to each of these mixtures. The pH values of all samples were adjusted to 7. […] The samples were incubated with 200 microliter immobilized-Protein A beads (RepliGen) and rotated at ambient temperature for 3 hours, after which the supernatant was removed and the beads washed with PBS. The thiol content of the immobilized antibody was determined by the addition of 0.2 ml of PBS containing 0.5 mM DTNB (Ellman's reagent) to the beads, rotation for about 10 minutes, centrifugation, and absorbance measurement of the supernatant at 412 nm.
The pH values of all samples were adjusted to 7. The samples were incubated with 200 microliter immobilized-Protein A beads (RepliGen) and rotated at ambient temperature for 3 hours, after which the supernatant was removed and the beads washed with PBS. The thiol content of the immobilized antibody was determined by the addition of 0.2 ml of PBS containing 0.5 mM DTNB (Ellman's reagent) to the beads, rotation for about 10 minutes, centrifugation, and absorbance measurement of the supernatant at 412 nm.
To test the effect of L-cystine bis(t-butyl ester) (CDBE) on protecting antibody disulfide bonds from reduction by CHO lysate, humanized FOLR1 IgG1 antibody (2 mg) was incubated with CHO lysate in RIPA buffer (0.6 ml lysate of 60 million CHO cells in 0.6 ml RIPA buffer, clarified by centrifugation) without or with 0.5 or 1 mM CDBE. The samples were rotated at ambient temperature with 200 microliter immobilized-Protein A beads (RepliGen) for 2 hours, after which the supernatant was removed and the beads washed with PBS. The thiol content of the immobilized antibody was determined by the addition of 0.2 ml of PBS containing 0.5 mM DTNB (Ellman's reagent) to the beads, centrifugation, and absorbance measurement of the supernatant at 412 nm.
The samples were rotated at ambient temperature with 200 microliter immobilized-Protein A beads (RepliGen) for 2 hours, after which the supernatant was removed and the beads washed with PBS. The thiol content of the immobilized antibody was determined by the addition of 0.2 ml of PBS containing 0.5 mM DTNB (Ellman's reagent) to the beads, centrifugation, and absorbance measurement of the supernatant at 412 nm.

Excerpt for physchem: The pH was adjusted to pH 7.1 and the sample was rotated overnight at ambient temperature followed by centrifugation to remove undissolved L-cystine dihydrochloride.

As to `N[C@@H](CS)C(=O)O` [cysteine, reference compound], the “modulation of redox potential” value in series [1] is reported as “constant redox potential at low concentrations of DTT, followed by a slow decrease at higher DTT concentrations”. The molecule further had an intact antibody in the series on M9346A antibody [2] (lysate mimicking 120% cell lysis, 400 μM NADPH, 37° C., 1 h, control 40%) of around 70%.

On to `CC(C)(C)OC(=O)[C@@H](N)CSSC[C@H](N)C(=O)OC(C)(C)C` [L-cystine bis(t-butyl ester) dihydrochloride], for which the solubility (in general, the dissolved amount per volume that the medium holds) in the series “physchem” (water) is at least 500 mM.

With `O=S(=O)([O-])[O-].[Cu+2]` [copper sulfate], the “modulation of redox potential” value in series [1] is on record as “constant redox potential across all DTT concentrations”. The molecule also returned an intact antibody in the series with M9346A antibody [3] of 100%. In the series with M9346A antibody [2] (conditions where control without additive was 100% fragmented), the “protection at increased assay stringency” value is given as “protective of disulfide reduction”.

For `Cl.Cl.N[C@@H](CSSC[C@H](N)C(=O)O)C(=O)O` [L-cystine dihydrochloride, reference compound], the solubility in the series “physchem” (pH 7.1, aqueous buffer) was below 5 mM. For the same molecule, in series [4], the thiol per antibody entry was “about 0.74 thiol per antibody”.

As for `[O]=[Cr](=[O])([O-])[O][Cr](=[O])(=[O])[O-]` [dichromate, reference compound], the “modulation of redox potential” value in series [1] was “constant redox potential across all DTT concentrations”. Also, in the series on M9346A antibody [3] (1 mM additive, 100 μM DTT, 37° C., 1 h, control 80%), the intact antibody amounted to 100%.
